The record followed here is patent publication US9833447B2, “5-HT4 receptor agonist for gastroparesis” (RAQUALIA PHARMA INC., priority 2014, dated 2017).

Data set [1] has as its system clonidine-induced gastroparesis model in dogs. The data set is described as follows: Gastric emptying rates in conscious dogs, clonidine-induced gastroparesis model (acetaminophen method). The format is in vivo, beagle dogs. The following applies: clonidine 0.01 mg/kg s.c. As to the method: Measurement of Gastric Emptying Rates in Conscious Dogs
All dogs are purchased from Kitayama Labes Co., Ltd. (Oriental Yeast Co., Ltd.). The animals are acclimatized to the laboratory conditions during experiments.
Dogs are fasted overnight, and then they are fed the test meal (10 mL/kg), which is ingested within 3 minutes. Blood samples are obtained at 0, 15, 30, 45, 60, 75, and 90 minutes after test meal administration. To provide a model of gastroparesis, 0.01 mg/kg of clonidine (alpha2 adrenergic agonist, Wako Pure Chemical Industries, Ltd., Osaka, Japan) is injected subcutaneously 30 minutes before test meal administration. […] Plasma is separated from the blood by centrifugation at 3,000 g for 5 min at 4° C. (himac CF15D, Hitachi Koki Co., Ltd., Tokyo, Japan). The plasma acetaminophen concentration is measured by LC-mass spectrometry.
Aliquots of dog plasma (50 microL) and 50 microL of internal standard (IS)* solution are mixed and vortexed well, and then they are diluted to a final volume of 750 microL with 50 mM ammonium acetate. As IS, [D4]4-acetamidophenol is used. Following conditioning of the solid phase extraction (SPE) 96 well plate (OASIS HLB, 10 mg/well, 30 microm, Waters Corporation, Milford, Mass., USA) with 700 microL methanol and 700 microL water in sequence, 750 microL of the plasma samples are transferred to the SPE plate for extraction. The SPE plate is then washed with 700 microL of 5% methanol. Samples are eluted twice off the SPE plate into a clean 96 deep well plate by addition of 250 microL of methanol. The eluent is then evaporated to dryness under 40° C. gentle stream of nitrogen, and reconstituted in 100 microL of acetonitrile/10 mM ammonium acetate (1/9, v/v). The samples are injected into HPLC column, and then the effluent from HPLC column is directly introduced into the turboionspray ion source, which is operated at the following conditions: * 300 ng/mL [D4]4-acetamidophenol: 10% methanol solution.

Data set [2] deals with healthy male human subjects. The data set is described as follows: Gastric emptying rates in healthy male human subjects (13C-breath test, BreathID). The format is in vivo. How it is done:
Measurement of Gastric Emptying Rates in Human Study Population
Healthy male subjects, who aged between 18 and 55 years old and have a normal gastric emptying (GE) rate, are screened and enrolled into the study.
Subjects are given single oral doses of Compound A at 0.6 and 3 microg. Subjects swallowed dosing solution (20 mL) of appropriate Compound A concentrations. The dosing bottle is rinsed with 20 mL of water, and this rinse is swallowed by the subjects. The subjects then swallowed 200 mL of room temperature water, resulting in a total fluid intake at dosing of 240 mL.
GE is monitored with ^13C-breath test using the BreathiD system (Exalenz Bioscience Inc., Modin, Israel), which enables to continuously analyze the subject's breath for exhaled CO2 via a nasal cannula using molecular correlation spectrometry at the bedside. […] GE rate of solids is evaluated over the 4 hours period following ingestion of a standardized solid test meal, which are comprised of 2 slices of bread, 1 egg and 150 mL water including an egg yolk that have been mixed with 100 mg ^13C-octanoic acid (total calorific intake of 200-300 kcal). […] The parameters for GE of gastric half emptying time (GET1/2), lag phase (Tlag), gastric emptying coefficient (GEC) and gastric emptying area under the effect curve (AUEC) are automatically calculated.

Data set [3] deals with patients with gastroparesis. The data set can be described thus: Gastric emptying rates in patients with gastroparesis (SmartPill). The format is in vivo, human. As to the method:
Measurement of Gastric Emptying Rates in Patients with Gastroparesis Clinical studies in patients with gastroparesis are conducted. Effect of Compound A on gastric emptying time (GET) is confirmed with SmartPill (Registered Trademark, Given Imaging Ltd.). SmartPill is an ingestible capsule that measures pressure, pH and temperature as it travels through the gastrointestinal (GI) tract to assess GI motility. The SmartPill motility monitoring test can be performed at a clinic or physician's office to evaluate motility disorders like gastroparesis (a condition in which the contents of the stomach empty too slowly) and chronic constipation. An improved gastric emptying time and colonic transit time are observed in the clinical studies.

Entries after “also recorded” stand apart in the source; their conditions may differ.

Consider `COc1cc(N)c(Cl)cc1C(=O)NC1CCN(CCCOc2ccc(F)cc2)CC1OC` (stereo not shown) [Cisapride, cisapride, reference compound], for which, in data set [1] (cisapride 1, 3 mg/kg p.o.), the “Effect on delayed gastric emptying induced by clonidine (plasma acetaminophen)” value was “reversed delayed gastric emptying”.

Take `Clc1cccc(Cl)c1N=C1NCCN1` [clonidine, reference compound]: in data set [1] (gastroparesis model induction), the “Plasma APAP concentration at 60 min after meal administration” value is “significantly decreased”.

Take `O=C(O)C1(CN2CCC(COc3noc4cccc(OCC(F)(F)F)c34)CC2)CCOCC1` [Compound A, 4-{[4-({[4-(2,2,2-trifluoroethoxy)-1,2-benzisoxazol-3-yl]-oxy}methyl)piperidin-1-yl]methyl}tetrahydro-2H-pyran-4-carboxylic acid]: in data set [1] (Compound A 0.3 microg/kg p.o.), the “Effect on delayed gastric emptying induced by clonidine (plasma acetaminophen)” value is “significantly restored delayed gastric emptying induced by clonidine (0.01 mg/kg) to the normal levels; also recorded: equivalent to that of cisapride (1 mg/kg, p.o.)”. Besides, in data set [2] (even at supratherapeutic doses, human healthy subjects), the “Severe Adverse Events and undesirable adverse events including QT/QTc prolongation” value is “No Severe Adverse Events (SAEs) and undesirable adverse events”. Moreover, the “Absolute change from baseline in gastric half emptying time (GET1/2)” value in data set [2] (single oral doses 0.6 and 3 microg, healthy male human subjects) was “clearly observed; also recorded: improved”. Besides, in data set [3], the Colonic transit time entry is reported as “improved” and the “Gastric emptying time (GET)” value is “improved”.
